The source of these data is US11656230B2, “Method for predicting cancer sensitivity” (Eutropics Pharmaceuticals, Inc., priority 2013, dated 2023).

Where only a bound is given, the exact number is not on record here.

The target in test [1] is Bcl-XL/BIM-BH3 heterodimer (Homo sapiens, UniProt Q07817). The experiment in a line: ELISA: inhibition of HSBXB binding to non-covalent Bcl-XL-GST/BIM-BH3 heterodimer by ABT-263. The note with it: heterodimers formed with BIM peptide on Glutathione-coated ELISA plates; compound added after peptides and before monoclonal antibody; FIG. 15. As for the experimental part: The compound was added to the ELISA plates after addition of peptides and before adding the monoclonal antibody. The Bib BH3 domain peptide was added as a negative control.
Chain of Bcl-XL/BIM-BH3 heterodimer (Q07817 whole entry, the tested form may be a part, one chain of several): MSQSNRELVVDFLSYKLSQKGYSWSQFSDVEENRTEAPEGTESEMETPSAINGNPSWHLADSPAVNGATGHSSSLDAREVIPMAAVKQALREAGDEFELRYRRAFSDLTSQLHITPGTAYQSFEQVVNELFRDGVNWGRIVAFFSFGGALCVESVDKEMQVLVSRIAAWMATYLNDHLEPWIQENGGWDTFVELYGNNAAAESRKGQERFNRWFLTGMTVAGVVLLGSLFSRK
ABT-263 disrupts Bcl-2/Bcl-xL interactions with pro-death proteins (e.g., Bim), leading to the initiation of apoptosis within 2 hours post treatment (Tse et al., 2008).
A general note: ELISA stands for enzyme-linked immunosorbent assay.

Test [2] deals with Bcl-XL/BIM heterodimer in SKBR3 cells (Homo sapiens, UniProt Q07817). Description: Near-infrared imaging of HSBXB binding in paraformaldehyde fixed cells incubated with ABT-263. Type of test: cell-based. The note with it: different concentrations of ABT-263, FIG. 17.
Chain of Bcl-XL/BIM heterodimer in SKBR3 cells (Q07817 whole entry, one chain of several): as the sequence (Q07817 whole entry, the tested form may be a part, one chain of several) above
Description: IRDye 800CW goat anti-mouse antibody was used for detecting the heterodimer specific mouse monoclonal antibody and IRDye 800CW Goat anti-rabbit antibody was used to detect the commercial Bcl-XL rabbit monoclonal antibody. […] The detection system uses near-infrared (IR) fluorophores (670-1100 nm) that have a distinct advantage over visible dyes, in that very low background fluorescence at longer wavelengths provides an excellent signal-to-noise ratio. […] In this system antibodies labeled with IR dyes at different wavelengths are used for detection of multiple targets. The imager simultaneously detects two distinct wavelengths. A scanning optical assembly carries two laser diodes that generate excitation light at 680 and 780 nm, as well as two avalanche photodiodes, which detect emitted fluorescence at 720 and 820 nm. […] IRDye 800CW goat anti-mouse antibody was used for detecting the heterodimer specific mouse monoclonal antibody and IRDye 800CW Goat anti-rabbit antibody was used to detect the commercial Bcl-XL rabbit monoclonal antibody.
Test [3] concerns the target Bcl-xL/Bim heterodimer in JEKO-1 cells (Homo sapiens, UniProt Q07817). Description: Flow cytometry (FACS), intracellular staining with HSBXB antibody. The conditions noted are these: 10 uM, 3 hours on ice, clone 32 at 10 ug/ml, FIG. 18. Type of test: cell-based. On the technique in general: Flow cytometry measures light scatter and fluorescence of single cells or particles in a stream.
Description: As a positive control we pretreated with the Bim BH3 peptide at a concentration that achieve saturated binding to the endogenous Bcl-XL. […] To enhance staining and to establish a positive control we added saturating amount of the Bim BH3 peptide to partially lysed cells. As a negative control we pretreated with BH3 mimetic compound, ABT 263 to displace Bim from Bcl-xL. In this experiment 5×10e6 JEKO 1 cells were suspended in Newmeyer buffer (Ryan et al Proc Natl Acad Sci USA 2010; 107:12895-900), digitonin (Sigma-Aldrich, St Louis Mo.) and treated with 100 uM Bim BH3 peptide; or ABT263 compound at 10 uM; or not treated. Cells were incubated on ice for 3 hours, and then washed and treated with clone 32 at 10 ug/ml for 20 minutes, washed again and stained with secondary goat anti-mouse IgG alexa-488. An IgG-2A isotype control was also prepared and run in parallel. Samples are analyzed on a FACS Canto II (BD Biosciences, San Jose Calif.) using the BD FACS Diva software.

Test [4] relates to mitochondrial outer membrane permeabilization (MOMP). The experiment in a line: Mitochondrial profiling assay (MOMP). Type of test: cell-based. The note with it: mitochondrial profiling assay (unpublished data).
Description: In one embodiment, this can be determined by measuring the mitochondrial outer membrane permeabilization (MOMP), which increases when a cell is about to undergo apoptosis. Mitochondrial outer membrane permeabilization can be measured for example, using the potentiometric dye JC-1 or dihydrorhodamine. MOMP can be measured using standard techniques known in the art, including those described in Bogenberger et al. (Leukemia et al. (2014) which is herein incorporated by reference in its entirety). In a non-limiting example, cells are permeabilized and incubated with a mitochondrial dye (e.g. JC-1 or dihydrorhodamine 123) and BH3 peptides with dimethyl sulfoxide or carbonyl cyanide m-chlorophenyl hydrazone (CCCP) and the degree of staining is measured. […] As a positive control we pretreated with the Bim BH3 peptide at a concentration that achieve saturated binding to the endogenous Bcl-XL. This treatment is routinely used as a positive control for complete mitochondrial priming in our mitochondrial profiling AML test. […] To enhance staining and to establish a positive control we added saturating amount of the Bim BH3 peptide to partially lysed cells. […] Samples are analyzed on a FACS Canto II (BD Biosciences, San Jose Calif.) using the BD FACS Diva software.
In test [5] the test system is Bcl-2/Bcl-xL interactions with pro-death proteins (e.g., Bim). The note with it: Tse et al., 2008; cited from earlier work.

Chain of Bcl-xL/Bim heterodimer in JEKO-1 cells (Q07817 whole entry, one chain of several): as the sequence (Q07817 whole entry, the tested form may be a part, one chain of several) above

As for `CC1(C)CCC(c2ccc(Cl)cc2)=C(CN2CCN(c3ccc(C(=O)NS(=O)(=O)c4ccc(N[C@H](CCN5CCOCC5)CSc5ccccc5)c(S(=O)(=O)C(F)(F)F)c4)cc3)CC2)C1` [ABT-263, Navitoclax], the “inhibition of heterodimer antibody signal” value in test [1] was “dose-dependent inhibition of heterodimer antibody signal”. For the same molecule, the “displacement of Bcl-xL bound BIM BH3 peptide detected by HSBXB” value in test [2] is recorded as “displacement of the Bcl-xL bound BIM BH3 peptide is detected”. Also, in test [3], the “displacement of Bim from Bcl-xL by flow cytometry using HSBXB antibody” value is recorded as “this displacement in measurable by flow cytometry”. In test [4], the “MOMP on displacement of Bim” value was “results in MOMP”. The “time to initiation of apoptosis post treatment” value in test [5] was at most 2 h.
